System: HBsAg
Test: HBsAg assay (chemiluminescence immunoassay of secreted HBsAg)
Assay type: cell-based, HBV
Conditions: HBsAg secretion, HepG2.2.15 cells, CLIA of culture supernatant
Summary of the method: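 HepG2.2.15 cells, in duplicate, treated with three-fold serial compound dilutions (1% DMSO final); secreted HBsAg in supernatant quantified by chemiluminescence immunoassay; IC50 is the concentration reducing HBsAg secretion by 50% versus the DMSO control.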

| Structure (SMILES) | IC50 [nM] |
| --- | --- |
| CC1c2cnc(-c3ncccn3)nc2CCN1c1cc(N2CCN(S(C)(=O)=O)CC2)cc(F)n1 (single isomer, unassigned) [Example 98, (+)-6-[6-Fluoro-4-(4-methylsulfonylpiperazin-1-yl)-2-pyridyl]-5-methyl-2-pyrimidin-2-yl-7,8-dihydro-5H-pyrido[4,3-d]pyrimidine] | 410 |

Same assay, conditions: Hepatitis B virus, HepG2.2.15, HBsAg secretion, HepG2.2.15 cells, CLIA of culture supernatant

| Structure (SMILES) | IC50 [nM] |
| --- | --- |
| CC1c2cnc(-c3ncccn3)nc2CCN1c1cc(F)cc(N2CCC(C(=O)NS(C)(=O)=O)CC2)n1 (centres unmarked) [Example 65, 1-[4-fluoro-6-(5-methyl-2-pyrimidin-2-yl-7,8-dihydro-5H-pyrido[4,3-d]pyrimidin-6-yl)-2-pyridyl]-N-methylsulfonyl-piperidine-4-carboxamide] | 4440 |
| CC1c2cnc(-c3ncccn3)nc2CCN1c1cc(NCCCCC(N)=O)cc(F)n1 (centres unmarked) [Example 137, 5-[[2-Fluoro-6-(5-methyl-2-pyrimidin-2-yl-7,8-dihydro-5H-pyrido[4,3-d]pyrimidin-6-yl)-4-pyridyl]amino]pentanamide] | 120 |
| CC1c2cnc(-c3ncccn3)nc2CCN1c1cc(N2CCC(C(=O)O)C2)cc(F)n1 (centres unmarked) [Example 38, 1-[2-fluoro-6-(5-methyl-2-pyrimidin-2-yl-7,8-dihydro-5H-pyrido[4,3-d]pyrimidin-6-yl)-4-pyridyl]pyrrolidine-3-carboxylic acid] | 1010 |
| CC1c2cnc(-c3ccccn3)nc2CCN1c1cc(N2CCC(C(N)=O)C2)cc(F)n1 (centres unmarked) [Example 62, 1-[2-fluoro-6-[5-methyl-2-(2-pyridyl)-7,8-dihydro-5H-pyrido[4,3-d]pyrimidin-6-yl]-4-pyridyl]pyrrolidine-3-carboxamide] | 35 |
| CC1c2cnc(-c3ncccn3)nc2CCN1c1cc(N(C)S(C)(=O)=O)cc(F)n1 (centres unmarked) [Example 159, N-[2-fluoro-6-(5-methyl-2-pyrimidin-2-yl-7,8-dihydro-5H-pyrido[4,3-d]pyrimidin-6-yl)-4-pyridyl]-N-methyl-methanesulfonamide] | 14 |
| CCC1CN(c2cc(F)nc(N3CCc4nc(-c5ncccn5)ncc4C3C)c2)CCO1 (centres unmarked) [Example 6, 2-ethyl-4-[2-fluoro-6-(5-methyl-2-pyrimidin-2-yl-7,8-dihydro-5H-pyrido[4,3-d]pyrimidin-6-yl)-4-pyridyl]morpholine] | 9 |
| CC(=O)N1CCN(c2cc(F)cc(N3CCc4nc(-c5ncccn5)ncc4C3C)n2)CC1 (centres unmarked) [Example 17, 1-[4-[4-fluoro-6-(5-methyl-2-pyrimidin-2-yl-7,8-dihydro-5H-pyrido[4,3-d]pyrimidin-6-yl)-2-pyridyl]piperazin-1-yl]ethanone] | 15 |
| CC1c2cnc(-c3ncccn3)nc2CCN1c1cc(F)cc(N2CCN(S(C)(=O)=O)C(C)(C)C2)n1 (centres unmarked) [Example 99, 6-[6-(3,3-dimethyl-4-methylsulfonyl-piperazin-1-yl)-4-fluoro-2-pyridyl]-5-methyl-2-pyrimidin-2-yl-7,8-dihydro-5H-pyrido[4,3-d]pyrimidine] | 26 |
| CC1c2cnc(-c3ncccn3)nc2CCN1c1cc(F)cc(N2CCCC2CO)n1 (centres unmarked) [Example 31, [1-[4-fluoro-6-(5-methyl-2-pyrimidin-2-yl-7,8-dihydro-5H-pyrido[4,3-d]pyrimidin-6-yl)-2-pyridyl]pyrrolidin-2-yl]methanol] | 14 |
| CC1c2cnc(-c3ccccn3)nc2CCN1c1cc(N2CCC(O)C2)cc(F)n1 (centres unmarked) [Example 60, 1-[2-fluoro-6-[5-methyl-2-(2-pyridyl)-7,8-dihydro-5H-pyrido[4,3-d]pyrimidin-6-yl]-4-pyridyl]pyrrolidin-3-ol] | 23 |
| CC1c2cnc(-c3ncccn3)nc2CCN1c1cc(N(CCCCC(N)=O)CC2CC2)cc(F)n1 (centres unmarked) [Example 143, 5-[Cyclopropylmethyl-[2-fluoro-6-(5-methyl-2-pyrimidin-2-yl-7,8-dihydro-5H-pyrido[4,3-d]pyrimidin-6-yl)-4-pyridyl]amino]pentanamide] | 176 |
| CC1c2cnc(-c3ncccn3)nc2CCN1c1cc(F)nc(N2CC(F)(F)C2)c1 (centres unmarked) [Example 149, 6-[2-(3,3-Difluoroazetidin-1-yl)-6-fluoro-4-pyridyl]-5-methyl-2-pyrimidin-2-yl-7,8-dihydro-5H-pyrido[4,3-d]pyrimidine] | 20 |
| CC1c2cnc(-c3ncccn3)nc2CCN1c1cc(N2CCC3(CCOC3)C2)cc(F)n1 (centres unmarked) [Example 12, 7-[2-fluoro-6-(5-methyl-2-pyrimidin-2-yl-7,8-dihydro-5H-pyrido[4,3-d]pyrimidin-6-yl)-4-pyridyl]-2-oxa-7-azaspiro[4.4]nonane] | 8 |
| CC1c2cnc(-c3ncccn3)nc2CCN1c1cc(N2CCOC(CO)C2)cc(F)n1 (centres unmarked) [Example 24, [4-[2-fluoro-6-(5-methyl-2-pyrimidin-2-yl-7,8-dihydro-5H-pyrido[4,3-d]pyrimidin-6-yl)-4-pyridyl]morpholin-2-yl]methanol] | 38 |
| CC1c2cnc(-c3ncccn3)nc2CCN1c1cc(F)cc(N2CCN(S(C)(=O)=O)C(C)C2)n1 (centres unmarked) [Example 105, 6-[4-fluoro-6-(3-methyl-4-methylsulfonyl-piperazin-1-yl)-2-pyridyl]-5-methyl-2-pyrimidin-2-yl-7,8-dihydro-5H-pyrido[4,3-d]pyrimidine] | 23 |
| CC1c2cnc(-c3ncccn3)nc2CCN1c1cc(N2CCC(C(=O)O)CC2)cc(F)n1 (centres unmarked) [Example 52, 1-[2-fluoro-6-(5-methyl-2-pyrimidin-2-yl-7,8-dihydro-5H-pyrido[4,3-d]pyrimidin-6-yl)-4-pyridyl]piperidine-4-carboxylic acid] | 1040 |

| Structure (SMILES) | IC50 [nM] |
| --- | --- |
| CC1c2cnc(-c3ncccn3)nc2CCN1c1cc(N2CC(C#N)C2)cc(F)n1 (centres unmarked) [Example 144, 1-[2-Fluoro-6-(5-methyl-2-pyrimidin-2-yl-7,8-dihydro-5H-pyrido[4,3-d]pyrimidin-6-yl)-4-pyridyl]azetidine-3-carbonitrile] | 28 |
| CC1CCN(c2cc(F)nc(N3CCc4nc(-c5ncccn5)ncc4C3C)c2)C1 (centres unmarked) [Example 18, 6-[6-fluoro-4-(3-methylpyrrolidin-1-yl)-2-pyridyl]-5-methyl-2-pyrimidin-2-yl-7,8-dihydro-5H-pyrido[4,3-d]pyrimidine] | 3 |
| CC1c2cnc(-c3ncccn3)nc2CCN1c1cc(N2CCOC(CC(=O)O)C2)cc(F)n1 (centres unmarked) [Example 28, 2-[4-[2-fluoro-6-(5-methyl-2-pyrimidin-2-yl-7,8-dihydro-5H-pyrido[4,3-d]pyrimidin-6-yl)-4-pyridyl]morpholin-2-yl]acetic acid] | 1820 |
| CC1c2cnc(-c3ncccn3)nc2CCN1c1cc(F)cc(N2C3CCC2COC3)n1 (centres unmarked) [Example 11, 8-[4-fluoro-6-(5-methyl-2-pyrimidin-2-yl-7,8-dihydro-5H-pyrido[4,3-d]pyrimidin-6-yl)-2-pyridyl]-3-oxa-8-azabicyclo[3.2.1]octane] | 188 |
| CC1c2cnc(-c3ncccn3)nc2CCN1c1cc(N2CCOC(C(=O)O)C2)cc(F)n1 (centres unmarked) [Example 26, 4-[2-fluoro-6-(5-methyl-2-pyrimidin-2-yl-7,8-dihydro-5H-pyrido[4,3-d]pyrimidin-6-yl)-4-pyridyl]morpholine-2-carboxylic acid] | 2320 |
| CC1c2cnc(-c3ncccn3)nc2CCN1c1cc(F)cc(N2CCCC2C(N)=O)n1 (centres unmarked) [Example 43, 1-[4-fluoro-6-(5-methyl-2-pyrimidin-2-yl-7,8-dihydro-5H-pyrido[4,3-d]pyrimidin-6-yl)-2-pyridyl]pyrrolidine-2-carboxamide] | 134 |
| CC1c2cnc(-c3ncccn3)nc2CCN1c1cc(F)cc(N2CC(C(=O)O)C2)n1 (centres unmarked) [Example 53, 1-[4-fluoro-6-(5-methyl-2-pyrimidin-2-yl-7,8-dihydro-5H-pyrido[4,3-d]pyrimidin-6-yl)-2-pyridyl]azetidine-3-carboxylic acid] | 4710 |
| CC1c2cnc(-c3ccccn3)nc2CCN1c1cc(F)cc(N2CCC(C(=O)O)C2)n1 (centres unmarked) [Example 67, 1-[4-fluoro-6-[5-methyl-2-(2-pyridyl)-7,8-dihydro-5H-pyrido[4,3-d]pyrimidin-6-yl]-2-pyridyl]pyrrolidine-3-carboxylic acid] | 532 |
| COC1CN(c2cc(F)cc(N3CCc4nc(-c5ncccn5)ncc4C3C)n2)C1 (centres unmarked) [Example 111, 6-[4-fluoro-6-(3-methoxyazetidin-1-yl)-2-pyridyl]-5-methyl-2-pyrimidin-2-yl-7,8-dihydro-5H-pyrido[4,3-d]pyrimidine] | 26 |
| CC1c2cnc(-c3ncccn3)nc2CCN1c1cc(F)cc(N2CCC(C(=O)O)C2)n1 (centres unmarked) [Example 39, 1-[4-fluoro-6-(5-methyl-2-pyrimidin-2-yl-7,8-dihydro-5H-pyrido[4,3-d]pyrimidin-6-yl)-2-pyridyl]pyrrolidine-3-carboxylic acid] | 108 |
| CC1C(=O)NCCN1c1cc(F)cc(N2CCc3nc(-c4ncccn4)ncc3C2C)n1 (centres unmarked) [Example 116, 4-[4-fluoro-6-(5-methyl-2-pyrimidin-2-yl-7,8-dihydro-5H-pyrido[4,3-d]pyrimidin-6-yl)-2-pyridyl]-3-methyl-piperazin-2-one] | 103 |
| COC1CCN(c2cc(F)cc(N3CCc4nc(-c5ncccn5)ncc4C3C)n2)C1 (centres unmarked) [Example 21, 6-[4-fluoro-6-(3-methoxypyrrolidin-1-yl)-2-pyridyl]-5-methyl-2-pyrimidin-2-yl-7,8-dihydro-5H-pyrido[4,3-d]pyrimidine] | 13 |
| CC1c2cnc(-c3ncccn3)nc2CCN1c1cc(N2CCCC2CO)cc(F)n1 (centres unmarked) [Example 30, [1-[2-fluoro-6-(5-methyl-2-pyrimidin-2-yl-7,8-dihydro-5H-pyrido[4,3-d]pyrimidin-6-yl)-4-pyridyl]pyrrolidin-2-yl]methanol] | 7 |
| CC1c2cnc(-c3ncccn3)nc2CCN1c1cc(N2CC(F)(F)C2)cc(F)n1 (centres unmarked) [Example 126, 6-[4-(3,3-difluoroazetidin-1-yl)-6-fluoro-2-pyridyl]-5-methyl-2-pyrimidin-2-yl-7,8-dihydro-5H-pyrido[4,3-d]pyrimidine] | 12 |
| CC1c2cnc(-c3ncccn3)nc2CCN1c1cc(F)cc(N2CC(NS(C)(=O)=O)C2)n1 (centres unmarked) [Example 118, N-[1-[4-fluoro-6-(5-methyl-2-pyrimidin-2-yl-7,8-dihydro-5H-pyrido[4,3-d]pyrimidin-6-yl)-2-pyridyl]azetidin-3-yl]methanesulfonamide] | 94 |
